Measurements taken from PMC7822819, “Discovery of a new class of integrin antibodies for fibrosis” (Scientific Reports, 2021).
“And” between values parts separate entries of the source, which are not always exact repeats. Equal entries are not always repeated.

Assays:
[1] = Plasma total drug concentration in bleomycin model (LC-MS/MS); assay type: in vivo, mouse; settings: 2 h after last dose, Day 19; MK-0429 200 mpk minipump, Nintedanib 60 mpk po qd; mean ± SE
Description: Mice at 12 ~ 13 weeks of age were randomized to 5 groups: saline, bleomycin instillation with vehicle (osmotic minipump), bleomycin instillation with MK-0429 treatment, bleomycin instillation with vehicle oral treatment, and bleomycin instillation with Nintedanib treatment. All mice were anaesthetized with isoflurane. Bleomycin was dosed by intra-tracheal (i.t) instillation in a volume of 50 µl, at a dose of 1unit /kg body weight. After instillation, mice were kept in a heads-up position for 2–5 min before putting into cages. MK-0429 (200 mg/kg) was administered by Osmotic pump from day 5 to day 14 and Nintedanib (60 mg/kg) was administered, p.o., q.d., for 14 days. Vehicle was dosed orally at 10 am daily from the day 5 to the end of the studies and dosing volume was 10 mL/kg. For plasma PK analysis, an aliquot of 50 μL plasma was spiked into a 96-well plate, and 200 μL of acetonitrile containing internal standard were added for protein precipitation. The mixture was vortexed, centrifuged at 4000 rpm for 20 min. 50 μL of supernatant were mixed with 200 μl H2O and the final solution were injected for LC–MS/MS analysis. The methods for quantitative analysis were developed on UPLC (Waters) chromatographic system equipped with an API4000 QTrap mass spectrometer (Applied Biosystems, Concord, Ontario, Canada). […]

[2] = target: T1, mouse αvβ6 (Mus musculus, UniProt P43406+Q9Z0T9); test: Latent TGFβ activation assay (TMLC / CHOK1-integrin co-culture, PAI-1 luciferase); assay type: cell-based; settings: in words
T1 construct: expressed in transfected cells
T1 sequence (P43406 31-1044): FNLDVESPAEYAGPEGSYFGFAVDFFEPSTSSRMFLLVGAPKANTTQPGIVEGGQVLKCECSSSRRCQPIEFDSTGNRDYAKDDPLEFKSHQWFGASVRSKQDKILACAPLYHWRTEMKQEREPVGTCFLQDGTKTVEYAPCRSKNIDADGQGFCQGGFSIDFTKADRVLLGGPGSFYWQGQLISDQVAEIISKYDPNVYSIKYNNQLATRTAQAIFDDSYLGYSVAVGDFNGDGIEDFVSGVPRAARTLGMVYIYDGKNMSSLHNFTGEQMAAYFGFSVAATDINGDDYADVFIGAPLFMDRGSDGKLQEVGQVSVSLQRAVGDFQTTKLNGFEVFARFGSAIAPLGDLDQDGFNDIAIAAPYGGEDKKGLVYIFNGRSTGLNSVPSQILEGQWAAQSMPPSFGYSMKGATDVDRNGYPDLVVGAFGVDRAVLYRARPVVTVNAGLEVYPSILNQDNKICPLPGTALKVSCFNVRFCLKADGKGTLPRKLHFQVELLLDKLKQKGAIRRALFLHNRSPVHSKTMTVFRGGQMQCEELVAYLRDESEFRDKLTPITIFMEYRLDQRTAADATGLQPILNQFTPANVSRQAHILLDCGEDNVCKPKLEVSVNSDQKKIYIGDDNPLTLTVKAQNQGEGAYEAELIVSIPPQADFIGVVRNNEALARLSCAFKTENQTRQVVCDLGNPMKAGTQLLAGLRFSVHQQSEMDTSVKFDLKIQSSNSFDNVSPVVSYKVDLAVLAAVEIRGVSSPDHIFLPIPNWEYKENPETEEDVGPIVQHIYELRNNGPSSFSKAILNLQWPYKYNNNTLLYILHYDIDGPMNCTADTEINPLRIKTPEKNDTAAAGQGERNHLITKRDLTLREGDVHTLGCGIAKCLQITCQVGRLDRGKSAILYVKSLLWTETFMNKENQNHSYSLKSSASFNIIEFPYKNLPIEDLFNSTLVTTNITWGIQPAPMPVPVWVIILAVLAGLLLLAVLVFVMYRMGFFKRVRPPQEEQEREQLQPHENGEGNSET
T1 sequence (Q9Z0T9 22-787): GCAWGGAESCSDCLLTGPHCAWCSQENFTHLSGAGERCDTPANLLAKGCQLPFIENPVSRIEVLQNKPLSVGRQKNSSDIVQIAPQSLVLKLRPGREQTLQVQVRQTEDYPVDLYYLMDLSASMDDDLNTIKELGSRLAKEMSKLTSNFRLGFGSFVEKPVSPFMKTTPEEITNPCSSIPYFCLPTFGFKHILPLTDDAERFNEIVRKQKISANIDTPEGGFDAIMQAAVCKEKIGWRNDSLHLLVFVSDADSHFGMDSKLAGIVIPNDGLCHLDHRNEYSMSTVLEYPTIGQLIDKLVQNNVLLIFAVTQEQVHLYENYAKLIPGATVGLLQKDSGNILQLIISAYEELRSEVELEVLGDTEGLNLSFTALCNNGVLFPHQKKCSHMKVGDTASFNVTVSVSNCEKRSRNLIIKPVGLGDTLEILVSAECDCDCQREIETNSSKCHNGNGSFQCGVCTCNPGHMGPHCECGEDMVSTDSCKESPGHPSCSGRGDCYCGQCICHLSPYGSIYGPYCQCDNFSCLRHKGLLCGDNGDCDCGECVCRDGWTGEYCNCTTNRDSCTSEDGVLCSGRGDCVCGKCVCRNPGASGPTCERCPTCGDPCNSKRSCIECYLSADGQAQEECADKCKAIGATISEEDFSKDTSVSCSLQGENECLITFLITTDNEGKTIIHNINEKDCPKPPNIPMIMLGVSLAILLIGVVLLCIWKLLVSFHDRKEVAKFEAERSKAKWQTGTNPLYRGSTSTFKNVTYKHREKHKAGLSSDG
Description: Transfected mink lung epithelial cell (TMLC) cell line containing the TGFβ responsive PAI-1 promoter driving luciferase expression[29] and the CHO-K1 human and mouse αvβx integrin cell lines were grown under optimized growth conditions to 90% confluency. TMLC cells were trypsinized and plated at 25,000 cells/well in 50 μL in Costar clear bottom white walled plates. In a separate plate, 25 μL of serially diluted antibodies at 4X concentration were added to wells containing 25 μL of either 25,000 cells of human or mouse αvβx cells. After a brief mixing, the 50 μL mixture was transferred to the TMLC cell plates for a total volume of 100 μL and incubated at 37 °C for 16 h. 100 μL of ONE-Glo kit (#PRE6120) was added to each well and read after 3–5 min on the Envision plate reader.

[3] = test system: osteoporosis patients; set-up: method as in PMID 15687321, PMID 20398037; settings: 52 weeks; cited from earlier work
[4] = target: mouse αvβ1 (Mus musculus, UniProt P09055+P43406); test: AlphaLISA integrin-ligand binding assay; assay type: biochemical; set-up: mαV 1 988; m β1 1 728; made in house; host or cells: Expi293; settings: Fig. 4B; read-out: IC50 Mouse integrin AlphaLISA assays: mαvβ1
mouse αvβ1, sequence (P43406 31-988): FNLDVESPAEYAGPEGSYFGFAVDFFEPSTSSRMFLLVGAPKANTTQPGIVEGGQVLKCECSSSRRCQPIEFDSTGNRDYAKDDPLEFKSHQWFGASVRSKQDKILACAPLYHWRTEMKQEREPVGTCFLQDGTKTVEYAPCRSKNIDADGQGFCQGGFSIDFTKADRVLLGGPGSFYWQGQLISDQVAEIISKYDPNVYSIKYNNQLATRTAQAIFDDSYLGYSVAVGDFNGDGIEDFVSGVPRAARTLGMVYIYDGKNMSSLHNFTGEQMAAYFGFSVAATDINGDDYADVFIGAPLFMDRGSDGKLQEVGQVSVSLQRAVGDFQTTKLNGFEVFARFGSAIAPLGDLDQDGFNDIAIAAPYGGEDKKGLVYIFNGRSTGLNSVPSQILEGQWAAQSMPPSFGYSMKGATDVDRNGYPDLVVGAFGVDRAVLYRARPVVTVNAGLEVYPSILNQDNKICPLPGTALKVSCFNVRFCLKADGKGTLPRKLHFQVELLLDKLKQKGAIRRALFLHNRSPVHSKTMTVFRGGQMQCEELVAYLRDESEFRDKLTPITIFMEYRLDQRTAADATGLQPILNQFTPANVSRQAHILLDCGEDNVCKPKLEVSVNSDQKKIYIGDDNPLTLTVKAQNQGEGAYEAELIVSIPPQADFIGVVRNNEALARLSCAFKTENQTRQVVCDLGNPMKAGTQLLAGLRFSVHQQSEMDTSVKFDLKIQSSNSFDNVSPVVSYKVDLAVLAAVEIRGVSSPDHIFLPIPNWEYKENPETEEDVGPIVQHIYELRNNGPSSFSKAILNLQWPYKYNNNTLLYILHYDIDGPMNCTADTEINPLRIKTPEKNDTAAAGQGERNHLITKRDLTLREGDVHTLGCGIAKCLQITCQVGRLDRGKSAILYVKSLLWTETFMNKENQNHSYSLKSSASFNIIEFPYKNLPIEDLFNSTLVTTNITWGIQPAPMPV
mouse αvβ1, sequence (P09055 21-728): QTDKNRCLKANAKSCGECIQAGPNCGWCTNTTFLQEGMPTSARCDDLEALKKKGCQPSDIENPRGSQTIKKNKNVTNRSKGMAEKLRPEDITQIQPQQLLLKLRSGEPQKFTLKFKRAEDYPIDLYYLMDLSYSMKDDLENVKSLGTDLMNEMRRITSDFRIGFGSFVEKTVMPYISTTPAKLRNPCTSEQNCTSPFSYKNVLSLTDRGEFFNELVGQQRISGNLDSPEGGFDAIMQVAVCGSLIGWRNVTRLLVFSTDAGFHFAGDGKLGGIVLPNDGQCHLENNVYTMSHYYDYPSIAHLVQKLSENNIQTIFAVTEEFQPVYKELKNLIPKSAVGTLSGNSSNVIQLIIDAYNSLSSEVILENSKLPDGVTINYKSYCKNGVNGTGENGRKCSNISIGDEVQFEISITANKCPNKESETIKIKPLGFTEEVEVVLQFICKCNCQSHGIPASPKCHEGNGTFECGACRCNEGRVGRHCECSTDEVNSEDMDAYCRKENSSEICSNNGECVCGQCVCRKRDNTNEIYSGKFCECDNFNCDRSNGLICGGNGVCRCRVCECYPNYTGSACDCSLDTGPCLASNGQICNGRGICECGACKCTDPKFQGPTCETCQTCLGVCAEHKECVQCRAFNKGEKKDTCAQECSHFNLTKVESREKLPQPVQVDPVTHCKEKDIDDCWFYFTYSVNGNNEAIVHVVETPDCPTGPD
Description: In the AlphaLISA integrin assays, we used a HEPES based buffer (25 mM HEPES pH 7.4, 137 mM NaCl, 1 mM MgCl2, 1 mM MnCl2, 2 mM CaCl2, 2.7 mM KCl, and 0.05% Tween-20). Optimal assay conditions were determined with a titration of the reagents for signal noise ratio (S/N), linear range, etc. For the respective integrins, we used the final concentrations described in Supplemental Table S3. Briefly, the testing antibody (8 μL) was added as a 4x (of Final testing concentration) solution in the HEPES buffer described previously into a 384w AlphaPlate (Perkin Elmer #6005350). Then the integrin and ligand were added sequentially as 8x (4 μL each). Plates were sealed and incubated at room temperature for 2 h. Then 4 × acceptor bead solution (8 μL) was added, and the plates were resealed and incubated at RT for 1 h. Finally, 4 × (8 μL) donor beads solution was added in a darkened room and incubated for 45 min at room temperature. Plates were read on the Envision (Perkin Elmer) in AlphaScreen mode within 3 h of donor bead addition.
Supplemental Table S3. integrin AlphaLIS A assay reagents and conditions Human A l phal i sa Inte gri n A ssays: Fi nal Condi ti ons […]
( batch de pe nde nt) anti body A l phaLi sa A cce ptor havb1 1. 4 nM 1. 0 nMα - Fi brone cti n human Fi brone cti n n/a A cce ptor be ads/ Pe rki n 10. 0 ug/ m 10. 0 ug/ m […]
havb3 3. 0 nM 10. […]

- Mean plasma total drug concentration [1]: 3701 ng/mL and 3701 ± 902 ng/mL
- Inhibition of latent TGFβ activation, mouse αvβ6 co-culture [2]: strong inhibitory effect
- IC50 [4]: 1.3 nM
Compound: COc1ccc(C(CC(=O)O)N2CCN(CCCc3ccc4c(n3)NCCC4)C2=O)cn1 (stereo not shown) [MK-0429]
- Safety profile [3]: relatively well-tolerated
